Measurements reported in patent publication EP1561465A2, “Methods of use of fluoroquinolone compounds against bacteria” (LG Life Sciences, Ltd., priority 1999, dated 2001).
≈ marks a conversion by molar mass, not a printed value. Read-outs that look alike come from different tables or passages of the source.

What was measured:
[1] = test system: Mycobacterium tuberculosis (MTB); experiment: MIC by proportions method (NCCLS M24-T, 1995), 82 MTB strains; format: cell-based; settings: compared with the other quinolones
[2] = test system: Hafnia alvei; experiment: MIC by agar dilution (NCCLS M7-A4), 288 enteropathogenic isolates, eight quinolones; format: cell-based; settings: Hafnia alvei (n = 32)
[3] = test system: Staphylococcus aureus; experiment: MIC by agar dilution (NCCLS), 411 isolates Buenos Aires 1998-99; format: cell-based; settings: for MIC90: Staphylococcus aureus
[4] = test system: Enterococcus faecalis; experiment: as above; format: cell-based; settings: Enterococcus faecalis (n = 48)
[5] = test system: P. aeruginosa; experiment: MIC by two-fold serial agar dilution, quinolone-resistant strains; format: cell-based; settings: Pseudomonas aeruginosa
[6] = test system: Staphylococcus aureus; experiment: MIC by NCCLS broth microdilution, 1100 Japanese clinical isolates 1997-1998; format: cell-based; settings: for MIC50 / MIC90 / MIC: Staphylococcus aureus; for MIC: Staphylococcus aureus quinolone resistant
[7] = test system: Klebsiella pneumoniae; experiment: as above; format: cell-based; settings: Klebsiella pneumoniae (n=35)
[8] = test system: Enterobacter cloacae; experiment: as above; format: cell-based; settings: Enterobacter cloacae (n=40)
[9] = test system: Salmonella spp.; experiment: as above; format: cell-based; settings: Salmonella spp. (n=29)
[10] = test system: Proteus mirabilis; experiment: as above; format: cell-based; settings: Proteus mirabilis (n=30)
[11] = test system: Proteus vulgaris; experiment: as above; format: cell-based
[12] = test system: Gram negative anaerobic pathogens and facultative anaerobic pathogens; experiment: MIC by agar dilution, Brucella HK agar with 5% laked sheep blood, anaerobic reference strains; format: cell-based
[13] = test system: Pseudomonas aeruginosa; experiment: MIC by agar dilution (NCCLS), 322 nosocomial Gram negative isolates, Athens 1998; format: cell-based; settings: n = 57 isolates
[14] = test system: Escherichia coli; experiment: as above; format: cell-based; settings: n = 57 isolates
[15] = test system: Klebsiella pneumoniae; experiment: as above; format: cell-based; settings: n = 56 isolates
[16] = test system: Enterococcus faecium; experiment: MIC by agar macrodilution (NCCLS), 373 Gram positive isolates, Athens 1998; format: cell-based
[17] = test system: Staphylococcus aureus; experiment: as above; format: cell-based; settings: Methicillin-susceptible Staphylococcus aureus (n = 85)
[18] = test system: Salmonella spp.; experiment: MIC by agar dilution (NCCLS M7-A4), 288 enteropathogenic isolates, gemifloxacin and 15 other antimicrobials; format: cell-based
[19] = test system: Hafnia alvei; experiment: as above; format: cell-based; settings: Hafnia alvei N= 32
[20] = test system: Shigella spp.; experiment: as above; format: cell-based; settings: Shigella spp. N= 21
Summary of the method: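 Agar dilution with ~10^4 cfu/spot inoculum; plates incubated aerobically at 35 °C for 24 h, except C. jejuni, held microaerophilically for 48 h. MIC taken as lowest antibiotic concentration with no visible growth.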

[21] = test system: Campylobacter jejuni; experiment: as above; settings: for MIC: Campylobacter jejuni
[22] = S. aureus, Methicillin resistant (n = 14)
[23] = S. aureus, Methicillin susceptible (n = 66)
[24] = Staphylococcus aureus oxacillin resistant (n=57)
[25] = Staphylococcus aureus oxacillin susceptible (n=41)
[26] = 24 h, read-out: MIC (mg/L) Range

N[C@@H]1[C@H]2CN(c3nc4c(cc3F)c(=O)c(C(=O)O)cn4-c3ccc(F)cc3F)C[C@@H]12 [Trovafloxacin, trovafloxacin]
in vitro activity against MTB [1]: lower in vitro activity | % Susceptible [2]: 100% | MIC50 [2]: 0.06 µg/mL (≈ 0.144 µM) | MIC90 [2]: 0.06 µg/mL (≈ 0.144 µM) | MIC Range [2]: 0.03 to 0.12 µg/mL | Resistance (%) [3, 22]: 7% | Resistance (%) [3, 23]: 0% | MIC Range ([3]; Staphylococcus aureus (n = 80)): ≤0.004 to 8 µg/mL | MIC90 [3, 22]: 4 µg/mL (≈ 9.61 µM) | MIC90 [3, 23]: 0.06 µg/mL (≈ 0.144 µM) | MIC90 ([3]; Staphylococcus aureus (n = 80)): 2 µg/mL (≈ 4.8 µM) | MIC90 [4]: 8 µg/mL (≈ 19.2 µM) | MIC Range [4]: ≤0.004 to 16 µg/mL | MIC [5]: 1 µg/mL (≈ 2.4 µM) | MIC Range [6, 24]: 0.016 to 32 µg/mL | MIC Range [6, 25]: ≤0.008 to 0.5 µg/mL | MIC50 [6, 24]: 1 µg/mL (≈ 2.4 µM) | MIC90 [6, 24]: 8 µg/mL (≈ 19.2 µM) | MIC50 [6, 25]: 0.032 µg/mL (≈ 0.0769 µM) | MIC90 [6, 25]: 0.063 µg/mL (≈ 0.151 µM) | MIC ([6]; strain TMS1* (spontaneous mutant resistant to ciprofloxacin)): 0.125 µg/mL (≈ 0.3 µM) | MIC ([6]; strain TMS3, read-out: MIC): 128 µg/mL (≈ 307 µM) | MIC ([6]; strain TMS4, read-out: MIC): 0.5 µg/mL (≈ 1.2 µM) | MIC ([6]; strain TMS5, read-out: MIC): 1 µg/mL (≈ 2.4 µM) | MIC ([6]; strain TMS6, read-out: MIC): 0.5 µg/mL (≈ 1.2 µM) | MIC50 [7]: 0.032 µg/mL (≈ 0.0769 µM) | MIC Range [7]: ≤0.008 to 1 µg/mL | MIC90 ([7]; read-out: MIC90): 0.063 µg/mL (≈ 0.151 µM) | MIC50 [8]: 0.032 µg/mL (≈ 0.0769 µM) | MIC90 [8]: 1 µg/mL (≈ 2.4 µM) | MIC Range [8]: ≤0.008 to 2 µg/mL | MIC50 [9]: 0.032 µg/mL (≈ 0.0769 µM) | MIC90 [9]: 0.063 µg/mL (≈ 0.151 µM) | MIC Range [9]: 0.016 to 0.063 µg/mL | MIC Range [10]: 0.063 to 16 µg/mL | MIC50 ([10]; read-out: MIC50): 0.25 µg/mL (≈ 0.6 µM) | MIC90 ([10]; read-out: MIC90): 0.5 µg/mL (≈ 1.2 µM) | MIC50 ([11]; Proteus vulgaris): 0.125 µg/mL (≈ 0.3 µM) | MIC Range ([11]; Proteus vulgaris (n=25)): 0.063 to 2 µg/mL | MIC90 ([11]; Proteus vulgaris (n=25), read-out: MIC90): 1 µg/mL (≈ 2.4 µM) | MIC [12]: 0.125 µg/mL (≈ 0.3 µM) | MIC ([12]; Bacteroides eggerthii, ATCC27754, Bacteroides eggerthii ATCC27754, read-out: MIC): 0.5 µg/mL (≈ 1.2 µM) | MIC ([12]; Bacteroides fragilis): 0.125 µg/mL (≈ 0.3 µM) | MIC ([12]; Bacteroides fragilis GA-I0558): 0.125 µg/mL (≈ 0.3 µM) | MIC ([12]; Bacteroides fragilis, ATCC25285): 0.125 µg/mL (≈ 0.3 µM) | MIC ([12]; Bacteroides fragilis, Bacteroides fragilis GA-I7955, read-out: MIC): 0.25 µg/mL (≈ 0.6 µM) | MIC ([12]; Bacteroides fragilis, Bacteroides fragilis GAI10150, read-out: MIC): 0.25 µg/mL (≈ 0.6 µM) | MIC ([12]; Bacteroides fragilis, Bacteroides fragilis GAI30079, read-out: MIC): 0.5 µg/mL (≈ 1.2 µM) | MIC ([12]; Bacteroides fragilis, Bacteroides fragilis GAI30144, read-out: MIC): 0.25 µg/mL (≈ 0.6 µM) | MIC ([12]; Bacteroides fragilis, NCTC10581, Bacteroides fragilis NCTC10581, read-out: MIC): 0.25 µg/mL (≈ 0.6 µM) | MIC ([12]; Bacteroides ovatus, ATCC8483, Bacteroides ovatus ATCC8483, read-out: MIC): 0.5 µg/mL (≈ 1.2 µM) | MIC ([12]; Bacteroides thetaiotaomicron, ATCC29741, Bacteroides thetaiotaomicron ATCC29741, read-out: MIC): 0.5 µg/mL (≈ 1.2 µM) | MIC ([12]; Bilophilla wadsworthia WAL7959, read-out: MIC): 0.5 µg/mL (≈ 1.2 µM) | MIC ([12]; Campylobacter gracilis, JCM8538, Campylobacter gracilis JCM8538, read-out: MIC): ≤ 0.03 µg/mL | MIC ([12]; Campylobacter ureolyticus, NCTC10941, Bacteroides ureolyticus NCTC10941, read-out: MIC): ≤ 0.03 µg/mL | MIC ([12]; Capnocytophaga ochracea, Capnocytophaga ochracea GAI5586, read-out: MIC): ≤ 0.03 µg/mL | MIC ([12]; Fusobacterium necrophorum, ATCC25286, Fusobacterium necrophorum ATCC25286, read-out: MIC): 0.25 µg/mL (≈ 0.6 µM) | MIC ([12]; Fusobacterium nucleatum, ATCC25586, Fusobacterium nucleatum ATCC25586, read-out: MIC): 0.5 µg/mL (≈ 1.2 µM) | MIC ([12]; Fusobacterium varium, ATCC8501, Fusobacterium varium ATCC8501, read-out: MIC): 4 µg/mL (≈ 9.61 µM) | MIC ([12]; Hoylesella oralis, ATCC33269, Prevotella oralis ATCC33269, read-out: MIC): 2 µg/mL (≈ 4.8 µM) | MIC ([12]; Parabacteroides distasonis, ATCC8503, Bacteroides distasonis ATCC8503, read-out: MIC): 0.5 µg/mL (≈ 1.2 µM) | MIC ([12]; Phocaeicola vulgatus, ATCC8482, Bacteroides vulgatus ATCC8482, read-out: MIC): 0.5 µg/mL (≈ 1.2 µM) | MIC ([12]; Porphylomonas gingivalis ATCC33277, read-out: MIC): ≤ 0.03 µg/mL | MIC ([12]; Porphyromonas asaccharolytica, ATCC25260): 0.125 µg/mL (≈ 0.3 µM) | MIC ([12]; Prevotella bivia, ATCC29303, Prevotella bivia ATCC29303, read-out: MIC): 2 µg/mL (≈ 4.8 µM) | MIC ([12]; Prevotella buccaeATCC33574, read-out: MIC): 0.5 µg/mL (≈ 1.2 µM) | MIC ([12]; Prevotella heparinolytica, ATCC35895): 0.125 µg/mL (≈ 0.3 µM) | MIC ([12]; Sutterella wadsworthensis, ATCC51579, Sutterella wadsworthensis ATCC51579, read-out: MIC): 0.25 µg/mL (≈ 0.6 µM) | MIC ([12]; Veillonella dispar, ATCC17748): 0.125 µg/mL (≈ 0.3 µM) | MIC ([12]; Veillonella parvula, ATCC10790, Veillonella parvula ATCC10790, read-out: MIC): 0.25 µg/mL (≈ 0.6 µM) | MIC50 [13]: 2 µg/mL (≈ 4.8 µM) | MIC90 [13]: > 64 µg/mL | MIC50 ([14]; Escherichia coli): 0.06 µg/mL (≈ 0.144 µM) | MIC90 ([14]; Escherichia coli): 0.25 µg/mL (≈ 0.6 µM) | MIC Range [14]: ≤0.03 to 64 µg/mL | MIC50 ([15]; Klebsiella pneumoniae): 0.125 µg/mL (≈ 0.3 µM) | MIC90 ([15]; Klebsiella pneumoniae): 1 µg/mL (≈ 2.4 µM) | MIC Range [15]: ≤0.03 to 16 µg/mL | MIC distribution (µg/ml) 0.03 [16]: 0 | MIC distribution (µg/ml) 0.06 [16]: 0 | MIC distribution (µg/ml) 0.125 [16]: 0 | MIC distribution (µg/ml) 0.25 [16]: 1 | MIC distribution (µg/ml) 0.5 [16]: 6 | MIC distribution (µg/ml) 1 [16]: 2 | MIC distribution (µg/ml) 2 [16]: 0 | MIC distribution (µg/ml) 4 [16]: 0 | MIC distribution (µg/ml) 8 [16]: 1 | MIC distribution (µg/ml) 16 [16]: 0 | MIC distribution (µg/ml) ≤0.015 [16]: 0 | MIC distribution (µg/ml) ≥32 [16]: 4 | MIC50 ([16]; Enterococcus faecium, n = 14 isolates, read-out: MIC50): 0.5 µg/mL (≈ 1.2 µM) | MIC90 ([16]; Enterococcus faecium, n = 14 isolates, read-out: MIC90): ≥ 32 µg/mL | MIC Range [17]: ≤0.03 to 2 µg/mL | MIC50 ([17]; read-out: MIC50): 0.06 µg/mL (≈ 0.144 µM) | MIC90 ([17]; read-out: MIC90): 0.125 µg/mL (≈ 0.3 µM) | MIC ([18]; S. hadar(2), isolates with MICs for ciprofloxacin ≥[…], read-out: MIC): 0.5 mg/L (≈ 1.2 µM) | MIC ([18]; S. newport(1), isolate with MIC for ciprofloxacin ≥[…], read-out: MIC): 0.5 mg/L (≈ 1.2 µM) | MIC ([18]; S. virchow(2), isolates with MICs for ciprofloxacin ≥[…], read-out: MIC): 0.25 mg/L (≈ 0.6 µM) | MIC (mg/L) Range ([18]; Salmonella spp. N= 106): ≤0.015 to 1 mg/L | MIC ([18]; Salmonella, S. tshiongwe(1), isolate with MIC for ciprofloxacin ≥[…], read-out: MIC): 1 mg/L (≈ 2.4 µM) | MIC ([18]; Salmonella, read-out: MIC (mg/L) 50%, Salmonella spp. N= 106): 0.06 mg/L (≈ 0.144 µM) | MIC ([18]; Salmonella, read-out: MIC (mg/L) 90%, Salmonella spp. N= 106): 0.25 mg/L (≈ 0.6 µM) | MIC [19, 26]: 0.03 to 0.12 mg/L (≈ 0.0721 to 0.288 µM) | MIC ([19]; read-out: MIC (mg/L) 50%): 0.06 mg/L (≈ 0.144 µM) | MIC ([19]; read-out: MIC (mg/L) 90%): 0.06 mg/L (≈ 0.144 µM) | MIC [20, 26]: ≤ 0.015 mg/L | MIC ([20]; read-out: MIC (mg/L) 50%): ≤ 0.015 mg/L | MIC ([20]; read-out: MIC (mg/L) 90%): ≤ 0.015 mg/L | MIC (mg/L) Range ([21]; Campylobacter jejuni N= 91): ≤0.015 to 32 mg/L | MIC ([21]; read-out: MIC (mg/L) 50%): 8 mg/L (≈ 19.2 µM) | MIC ([21]; read-out: MIC (mg/L) 90%): 8 mg/L (≈ 19.2 µM)
